Molecules are shown by their SMILES. Entries after “also recorded” stand apart in the source; their conditions may differ. Read-outs that look alike come from different tables or passages of the source. A value given as a limit tells only on which side of the number the result lay.

Data set [1] deals with PDGFR-β (Homo sapiens, UniProt P09619). Kind of data set: Kinase inhibition, whole-cell assay, PDGFR-β. It counts as cell-based. Particulars: Table 1; IC50 ± SD; read-out: Kinase inhibition IC50 [whole-cell assays] PDGFR-β.
Data set [2] has as its target EGFR (Homo sapiens, UniProt P00533). Nature of the data set: Kinase inhibition, whole-cell assay, EGFR. Particulars: Table 1; IC50 ± SD; read-out: Kinase inhibition IC50 [whole-cell assays] EGFR. It counts as cell-based.
Data set [3] has as its system MDA-MB-435 cancer cells. Kind of data set: Antiproliferative effect in MDA-MB-435 cancer cells (SRB assay). The data set is classed as cell-based. Particulars: Table 2, read-out: MDA-MB-435 IC50.
Data set [4] deals with A-10 cells. Nature of the data set: Microtubule depolymerization, cell-based phenotypic assay in A-10 cells. Particulars: Table 2, read-out: Microtubule depolymerization EC50.
The test system of data set [5] is NCI/ADR resistant tumor model. Kind of data set: NCI/ADR-RES xenograft trial (resistant tumor model). The data set is classed as in vivo, mice. Particulars: day 11, AG165 75 mg/kg. An excerpt: AG165 in MDA-MB-435 xenograph model:
Data set [6] relates to A431.
Data set [7] relates to MDA-MB-435 xenograft. Nature of the data set: MDA-MB-435 xenograft trial. Particulars: for adverse effects / toxicity in xenograft trial: cumulative dosing; for antitumor effects: MDA-MB-435 xenograft.
Data set [8] deals with MDA-MB-231 xenograft. Kind of data set: MDA-MB-231 xenograft trial.
Data set [9] has as its system purified tubulin. Kind of data set: Inhibition of tubulin assembly (Section II). The data set is classed as biochemical. Particulars: Table 5; Section II compounds; read-out: Inhibition of tubulin assembly IC50 ± SD. Here is the method:
The effects of 3, 4, 6, 7 and 9 on the polymerization of purified tubulin were evaluated (Table 5). This allows a study of the direct interaction of these compounds with their intracellular target. The ability of these compounds to bind to the colchicine site on tubulin was evaluated by measuring inhibition of [^3H]colchicine binding to tubulin.

The test system of data set [10] is Parental SK-OV-3. Nature of the data set: Antiproliferative activity, parental SK-OV-3. It counts as cell-based. Particulars: Homo sapiens, Table 6, read-out: IC50 ± SD Parental SK-OV-3.
Data set [11] has as its system Pgp expressing SK-OV-3 MDR1-6-6. Kind of data set: Antiproliferative activity, Pgp expressing SK-OV-3 MDR1-6-6. It counts as cell-based. Particulars: Homo sapiens, SK-OV-3, read-out: IC50 ± SD Pgp expressing SK-OV-3 MDR1-6-6.
Data set [12] relates to Parental HeLa. Kind of data set: Antiproliferative activity, parental HeLa. The data set is classed as cell-based. Particulars: Homo sapiens, Table 7, read-out: IC50 ± SD Parental HeLa. An excerpt: Another clinically relevant drug resistance mechanism of tubulin-targeting agents is the overexpression of the βIII isotype of tubulin.
The test system of data set [13] is tubulin (colchicine site). Nature of the data set: Inhibition of [3H]colchicine binding to tubulin (Section III). Particulars: 5 μM; Section III compounds.
The subject of data set [14] is Parental OVCAR-8. Nature of the data set: Antiproliferative effect, parental OVCAR-8 (SRB assay). The data set is classed as cell-based. Particulars: Homo sapiens, Table 10, n = 3, read-out: IC50 ± SD Parental OVCAR-8.
Data set [15] relates to P-gp Overexpressing NCI/ADR-RES. Nature of the data set: Antiproliferative effect, P-gp overexpressing NCI/ADR-RES (SRB assay). Particulars: Homo sapiens, read-out: IC50 ± SD P-gp Overexpressing NCI/ADR-RES.
Setting [16] is: IP 75 mg/kg, listed as AG 165, 75 mg/kg.

Sequence of EGFR (P00533 25-1210, species assumed): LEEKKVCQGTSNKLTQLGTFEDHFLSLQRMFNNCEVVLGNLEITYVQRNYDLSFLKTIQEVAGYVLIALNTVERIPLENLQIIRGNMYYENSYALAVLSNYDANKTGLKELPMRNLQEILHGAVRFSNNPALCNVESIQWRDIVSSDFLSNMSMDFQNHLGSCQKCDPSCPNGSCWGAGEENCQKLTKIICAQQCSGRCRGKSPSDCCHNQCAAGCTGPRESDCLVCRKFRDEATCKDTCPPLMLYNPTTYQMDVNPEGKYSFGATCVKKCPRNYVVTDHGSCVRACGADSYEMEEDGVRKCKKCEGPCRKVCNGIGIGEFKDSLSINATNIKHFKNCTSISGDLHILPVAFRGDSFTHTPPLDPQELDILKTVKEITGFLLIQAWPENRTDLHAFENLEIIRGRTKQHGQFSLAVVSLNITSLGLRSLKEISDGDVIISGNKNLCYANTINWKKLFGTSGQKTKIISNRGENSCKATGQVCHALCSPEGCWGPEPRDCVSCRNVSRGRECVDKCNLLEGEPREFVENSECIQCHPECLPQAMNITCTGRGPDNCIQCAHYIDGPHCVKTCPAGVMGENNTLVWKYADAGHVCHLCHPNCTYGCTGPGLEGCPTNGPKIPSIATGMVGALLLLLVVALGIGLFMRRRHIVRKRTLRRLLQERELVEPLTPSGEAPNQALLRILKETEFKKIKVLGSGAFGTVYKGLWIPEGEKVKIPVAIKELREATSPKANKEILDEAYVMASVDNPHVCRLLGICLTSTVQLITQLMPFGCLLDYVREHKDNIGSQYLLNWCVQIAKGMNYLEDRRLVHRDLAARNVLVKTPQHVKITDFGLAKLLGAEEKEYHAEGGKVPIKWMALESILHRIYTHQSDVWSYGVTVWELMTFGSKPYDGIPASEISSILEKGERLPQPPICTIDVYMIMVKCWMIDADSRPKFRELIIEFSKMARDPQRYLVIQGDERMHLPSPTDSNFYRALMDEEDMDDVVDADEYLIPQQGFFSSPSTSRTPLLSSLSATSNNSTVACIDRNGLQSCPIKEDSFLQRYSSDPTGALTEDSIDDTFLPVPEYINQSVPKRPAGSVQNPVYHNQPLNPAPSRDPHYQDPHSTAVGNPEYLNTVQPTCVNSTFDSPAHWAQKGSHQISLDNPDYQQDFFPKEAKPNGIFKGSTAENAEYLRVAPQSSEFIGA
Sequence of PDGFR-β (P09619 33-1106, species assumed): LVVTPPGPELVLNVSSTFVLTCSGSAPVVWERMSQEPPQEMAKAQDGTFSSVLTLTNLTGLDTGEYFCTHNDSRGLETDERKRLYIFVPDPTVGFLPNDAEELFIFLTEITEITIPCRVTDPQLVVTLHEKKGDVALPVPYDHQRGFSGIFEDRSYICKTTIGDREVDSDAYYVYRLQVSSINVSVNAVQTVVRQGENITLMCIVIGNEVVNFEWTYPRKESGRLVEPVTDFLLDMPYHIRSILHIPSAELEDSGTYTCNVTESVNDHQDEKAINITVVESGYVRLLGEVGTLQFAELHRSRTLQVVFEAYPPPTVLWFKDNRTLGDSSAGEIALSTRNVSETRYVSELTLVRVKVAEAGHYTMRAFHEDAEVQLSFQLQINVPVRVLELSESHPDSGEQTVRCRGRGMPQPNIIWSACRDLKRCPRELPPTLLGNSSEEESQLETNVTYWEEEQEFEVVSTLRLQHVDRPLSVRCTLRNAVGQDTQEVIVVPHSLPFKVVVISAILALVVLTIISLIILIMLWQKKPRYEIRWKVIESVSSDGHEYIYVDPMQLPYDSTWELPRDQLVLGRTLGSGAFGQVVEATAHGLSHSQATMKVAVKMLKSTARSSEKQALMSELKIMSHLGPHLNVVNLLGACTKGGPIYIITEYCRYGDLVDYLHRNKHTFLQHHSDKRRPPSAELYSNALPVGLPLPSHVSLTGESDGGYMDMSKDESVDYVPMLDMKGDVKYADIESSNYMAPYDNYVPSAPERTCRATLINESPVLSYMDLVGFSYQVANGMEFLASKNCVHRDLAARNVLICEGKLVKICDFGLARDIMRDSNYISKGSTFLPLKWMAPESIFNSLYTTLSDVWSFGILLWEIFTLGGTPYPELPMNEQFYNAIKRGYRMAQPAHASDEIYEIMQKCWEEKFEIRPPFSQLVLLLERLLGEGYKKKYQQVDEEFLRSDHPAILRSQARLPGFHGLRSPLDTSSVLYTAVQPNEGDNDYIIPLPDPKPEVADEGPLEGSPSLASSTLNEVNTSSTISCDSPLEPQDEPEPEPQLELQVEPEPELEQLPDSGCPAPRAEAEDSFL

On to `CCCn1ccc2nc(C)nc(N(C)c3ccc(OC)cc3)c21.Cl` [3•HCl], for which the IC50 is over 200 nM in data set [1], 89.3 ± 9.2 nM in data set [2], 8.8 ± 3.4 nM in data set [3] and 107 ± 18 nM in [6]. Besides, the EC50 in data set [4] came out at 20 nM. The “tumor volume vs control treated mice” value in [5] (p=0.0003) is “significantly smaller”. Besides, the “tumor volume vs PTX (10 mg/kg) treated mice” value in data set [5] (p=0.0333) is recorded as “significantly smaller”. The “final average tumor mass compared to the vehicle” value in data set [7] (Day 15, IP 75 mg/kg) is given as “statistically significant (p<0.001) lower final average tumor mass”. Moreover, in data set [7] (IP 75 mg/kg, compared to the vehicle), the mouse weight change entry is listed as “recoverable weight loss”. The “adverse effects / toxicity in xenograft trial” value in [7] (IP 75 mg/kg, 75 mg/kg) is listed as “did not induce any noticeable adverse effects or toxicities; also recorded: no apparent toxicity”; in [7] (setting [16]), “no evidence of effects on either central or peripheral nervous system”. In addition, in data set [7] (IP 75 mg/kg, nude mice), the “tumor growth during the trial” value was “inhibited tumor growth”. The antitumor effects entry in [7] (IP 75 mg/kg, 75 mg/kg) was “statistically significant antitumor effects (p<0.001)”; in data set [7] (setting [16]), “highly statistically significant (p<0.001) antitumor effects”; in data set [8] (MDA-MB-231 xenograft, 3.HCl 75 mg/kg IP, paclitaxel 10 mg/kg IP), “statistically significant antitumor effects comparable to paclitaxel”. Further, the tumors vs control result is reported as “significantly smaller” in data set [7] (days 9, 11 and 15, 75 mg/kg, p<0.01 days 9 and 11, p<0.0001 day 15); “significantly smaller” in data set [8] (days 10 and 15, 75 mg/kg, p<0.01 and p<0.0001).
Turning to `COc1ccc(/C=C\c2cc(OC)c(OC)c(OC)c2)cc1O` [CA-4, combretastatin A-4], the IC50 in data set [3] (Homo sapiens, MDA-MB-435) came to 3.47 ± 0.6 nM; in data set [9], […]; in data set [10] it was […]; in data set [11] it was 6.6 ± 1.3 nM; in data set [12] it was 4.7 ± 0.2 nM; in data set [14], 6 ± 0.7 nM. Further, the IC50 in data set [15] stood at 9 ± 2 nM. The EC50 in [4] (Rattus norvegicus, A10) was determined as 13.1 nM. In data set [13], the “Inhibition of colchicine binding (% inhibition ± SD)” value is reported as 97%.
